Data on six compounds can be found in ChEMBL document CHEMBL1201862, “PubChem BioAssay data set” (2004).

Calls of active or inactive are those of the source. Bounds are passed on as bounds.

Test [1] addresses T1, DNA repair and recombination protein RAD54-like (Homo sapiens, UniProt Q92698).
T1 sequence (Q92698 whole entry): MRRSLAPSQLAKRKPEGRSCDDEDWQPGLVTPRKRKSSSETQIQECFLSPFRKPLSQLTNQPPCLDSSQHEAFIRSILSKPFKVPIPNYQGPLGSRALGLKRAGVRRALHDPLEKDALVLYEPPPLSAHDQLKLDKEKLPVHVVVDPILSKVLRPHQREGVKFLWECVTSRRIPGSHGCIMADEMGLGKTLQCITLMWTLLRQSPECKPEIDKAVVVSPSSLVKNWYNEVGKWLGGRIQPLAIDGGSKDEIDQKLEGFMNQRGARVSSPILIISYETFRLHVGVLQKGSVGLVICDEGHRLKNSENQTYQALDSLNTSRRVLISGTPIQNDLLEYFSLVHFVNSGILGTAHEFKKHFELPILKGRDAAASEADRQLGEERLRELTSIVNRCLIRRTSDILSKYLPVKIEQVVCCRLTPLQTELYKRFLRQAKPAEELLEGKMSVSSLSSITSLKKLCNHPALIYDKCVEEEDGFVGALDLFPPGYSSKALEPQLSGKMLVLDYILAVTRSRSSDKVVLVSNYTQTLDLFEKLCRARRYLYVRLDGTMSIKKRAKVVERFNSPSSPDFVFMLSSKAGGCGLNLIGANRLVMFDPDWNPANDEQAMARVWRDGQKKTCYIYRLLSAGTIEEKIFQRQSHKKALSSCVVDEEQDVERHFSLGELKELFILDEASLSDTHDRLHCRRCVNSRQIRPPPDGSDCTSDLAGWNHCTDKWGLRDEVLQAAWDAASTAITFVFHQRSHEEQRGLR
In words: inhibitors of human RAD54 branch migration, confirmation, biochemical, fluorescence, cherry-picked samples, dose series (AID 651657). Format: functional.

The target in test [2] is T2, DNA repair protein RAD52 homolog (Homo sapiens, UniProt P43351).
T2 sequence (P43351 whole entry): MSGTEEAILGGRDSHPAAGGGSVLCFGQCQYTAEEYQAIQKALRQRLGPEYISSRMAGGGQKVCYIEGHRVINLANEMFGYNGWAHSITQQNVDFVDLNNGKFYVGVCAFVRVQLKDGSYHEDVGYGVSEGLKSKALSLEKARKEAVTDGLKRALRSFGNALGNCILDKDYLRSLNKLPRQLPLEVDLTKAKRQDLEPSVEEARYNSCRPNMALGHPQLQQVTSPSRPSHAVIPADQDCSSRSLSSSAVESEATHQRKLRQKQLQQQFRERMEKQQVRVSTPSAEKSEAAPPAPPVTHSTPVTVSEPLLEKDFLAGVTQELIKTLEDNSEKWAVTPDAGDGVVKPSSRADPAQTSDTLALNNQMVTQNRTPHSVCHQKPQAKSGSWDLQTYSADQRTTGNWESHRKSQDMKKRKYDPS
Format: functional, biochemical.

Test [3] concerns the target T3, Microphthalmia-associated transcription factor (Homo sapiens, UniProt O75030).
T3 sequence (O75030 whole entry): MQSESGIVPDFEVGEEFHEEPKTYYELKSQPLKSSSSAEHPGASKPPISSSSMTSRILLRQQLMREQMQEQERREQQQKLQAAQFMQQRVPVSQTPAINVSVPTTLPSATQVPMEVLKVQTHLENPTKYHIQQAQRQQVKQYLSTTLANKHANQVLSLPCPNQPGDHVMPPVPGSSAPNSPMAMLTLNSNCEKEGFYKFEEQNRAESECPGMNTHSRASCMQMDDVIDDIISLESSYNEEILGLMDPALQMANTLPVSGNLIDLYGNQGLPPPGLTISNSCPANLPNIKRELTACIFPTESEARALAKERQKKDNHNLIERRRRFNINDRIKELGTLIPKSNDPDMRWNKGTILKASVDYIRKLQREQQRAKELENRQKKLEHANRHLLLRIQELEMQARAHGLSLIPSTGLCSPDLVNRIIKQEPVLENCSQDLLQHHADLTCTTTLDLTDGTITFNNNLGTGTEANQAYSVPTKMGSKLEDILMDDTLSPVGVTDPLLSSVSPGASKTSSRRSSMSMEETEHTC
Put plainly: TRPM1 promoter luciferase signal decrease, dose response, MITF inhibitor project, cell-based, SK-MEL-5, cherry-picked, set 3 (AID 493073).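 Note: SK-MEL-5 melanoma cells with luciferase driven by the MITF target TRPM1 promoter.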 The test is classed as functional.

The target in test [4] is T4, Rac GTPase-activating protein 1 (Homo sapiens, UniProt Q9H0H5).
T4 sequence (Q9H0H5 whole entry): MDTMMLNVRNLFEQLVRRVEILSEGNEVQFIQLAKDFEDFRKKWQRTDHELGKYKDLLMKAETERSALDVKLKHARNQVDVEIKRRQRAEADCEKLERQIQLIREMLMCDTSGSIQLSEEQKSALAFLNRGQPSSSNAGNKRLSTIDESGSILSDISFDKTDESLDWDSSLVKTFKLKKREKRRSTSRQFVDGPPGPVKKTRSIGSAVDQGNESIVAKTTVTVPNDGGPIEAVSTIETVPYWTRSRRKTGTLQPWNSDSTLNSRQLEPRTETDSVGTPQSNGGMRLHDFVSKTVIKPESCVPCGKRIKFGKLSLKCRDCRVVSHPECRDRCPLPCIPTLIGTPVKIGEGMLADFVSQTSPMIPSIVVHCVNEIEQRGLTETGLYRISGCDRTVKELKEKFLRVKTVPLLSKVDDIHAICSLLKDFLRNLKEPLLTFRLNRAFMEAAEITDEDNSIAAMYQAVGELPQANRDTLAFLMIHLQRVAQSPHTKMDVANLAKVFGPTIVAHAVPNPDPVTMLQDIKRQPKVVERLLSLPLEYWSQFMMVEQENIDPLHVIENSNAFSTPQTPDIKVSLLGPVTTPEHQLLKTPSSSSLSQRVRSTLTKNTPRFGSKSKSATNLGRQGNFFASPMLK
Put plainly: MgcRacGAP GTPase-activating activity inhibitors, confirmation, biochemical, ADP Hunter fluorescence, primary and confirmatory (AID 624330). Format: functional.

Test [5] concerns the target DNA (cytosine-5)-methyltransferase 1 (Homo sapiens, UniProt P26358). In words: DNMT1 methyltransferase inhibitors, confirmation, biochemical, fluorescent molecular beacon (AID 602386). The test is classed as functional.
For test [6], the target named is T5, RNA-binding protein pos-1 (Caenorhabditis elegans, UniProt G5EF15).
T5 sequence (G5EF15 whole entry): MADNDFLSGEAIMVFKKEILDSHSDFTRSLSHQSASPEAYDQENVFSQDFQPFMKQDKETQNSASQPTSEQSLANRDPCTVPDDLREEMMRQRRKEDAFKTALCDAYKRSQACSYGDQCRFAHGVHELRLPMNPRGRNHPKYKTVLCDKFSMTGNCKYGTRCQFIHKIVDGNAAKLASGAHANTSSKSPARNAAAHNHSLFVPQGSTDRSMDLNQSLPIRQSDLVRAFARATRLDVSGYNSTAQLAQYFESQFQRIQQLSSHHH
Put plainly: inhibitors of POS-1/mex-3 RNA binding, dose response, biochemical, fluorescence polarization (AID 1964).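 Note: purified POS-1 fused to maltose binding protein made in E. coli; potency of compounds blocking POS-1 binding to fluorescent RNA.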

The target of test [7] is T6, Low molecular weight phosphotyrosine protein phosphatase (Homo sapiens, UniProt P24666).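 Note: Dose-response confirmation assay measuring inhibition of LMPTP enzyme activity by fluorescence intensity read-out.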
T6 sequence (P24666 whole entry): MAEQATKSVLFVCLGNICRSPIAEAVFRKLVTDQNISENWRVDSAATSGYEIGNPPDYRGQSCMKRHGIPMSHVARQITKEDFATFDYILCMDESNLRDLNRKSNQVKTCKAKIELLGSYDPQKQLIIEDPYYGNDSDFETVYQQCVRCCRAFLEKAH
Format: functional. As to conditions: read-out: IC50_Mean.

Test [8] addresses T7, Protein RecA (Mycobacterium tuberculosis, UniProt P9WHJ3).
T7 sequence (P9WHJ3 whole entry): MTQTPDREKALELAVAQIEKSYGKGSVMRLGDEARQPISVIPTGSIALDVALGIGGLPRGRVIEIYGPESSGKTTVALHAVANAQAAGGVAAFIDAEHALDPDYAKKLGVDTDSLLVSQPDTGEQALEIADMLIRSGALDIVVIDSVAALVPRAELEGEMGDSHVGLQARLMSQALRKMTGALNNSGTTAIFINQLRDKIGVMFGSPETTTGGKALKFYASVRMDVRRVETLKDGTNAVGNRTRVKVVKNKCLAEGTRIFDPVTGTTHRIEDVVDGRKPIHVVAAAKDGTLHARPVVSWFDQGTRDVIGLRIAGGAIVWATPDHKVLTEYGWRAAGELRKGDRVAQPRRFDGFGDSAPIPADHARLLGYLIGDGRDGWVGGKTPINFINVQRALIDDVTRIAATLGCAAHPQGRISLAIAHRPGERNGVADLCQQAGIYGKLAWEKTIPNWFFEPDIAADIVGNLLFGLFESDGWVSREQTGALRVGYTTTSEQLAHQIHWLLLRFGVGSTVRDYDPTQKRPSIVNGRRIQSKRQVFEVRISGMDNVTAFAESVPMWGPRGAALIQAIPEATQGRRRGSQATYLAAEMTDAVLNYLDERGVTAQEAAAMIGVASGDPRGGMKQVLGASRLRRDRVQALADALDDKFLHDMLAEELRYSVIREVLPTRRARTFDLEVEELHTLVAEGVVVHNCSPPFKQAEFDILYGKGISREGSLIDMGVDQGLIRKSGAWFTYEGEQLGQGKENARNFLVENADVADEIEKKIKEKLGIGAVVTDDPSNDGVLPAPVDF
In words: Fluorescence Cell-Free Homogeneous Dose Retest to Identify Inhibitors of RecA-Intein Splicing Activity. [Related pubchem assays (depositor defined):AID2097, AID2223, AID489010, AID492950]. The test is classed as functional.

The target in test [9] is Prothrombin (Bos taurus, UniProt P00735). Put plainly: thrombin inhibition, dose response, biochemical, fluorescence polarization, uHTS hits (AID 602369). Format: functional.
The target of test [10] is 72 kDa type IV collagenase (Homo sapiens, UniProt P08253). Put plainly: Dose Response validation of uHTS RPN11 inhibitor hits using a MMP-2 Fluorescence assay. The test is classed as functional.
Sequence of 72 kDa type IV collagenase (P08253 whole entry): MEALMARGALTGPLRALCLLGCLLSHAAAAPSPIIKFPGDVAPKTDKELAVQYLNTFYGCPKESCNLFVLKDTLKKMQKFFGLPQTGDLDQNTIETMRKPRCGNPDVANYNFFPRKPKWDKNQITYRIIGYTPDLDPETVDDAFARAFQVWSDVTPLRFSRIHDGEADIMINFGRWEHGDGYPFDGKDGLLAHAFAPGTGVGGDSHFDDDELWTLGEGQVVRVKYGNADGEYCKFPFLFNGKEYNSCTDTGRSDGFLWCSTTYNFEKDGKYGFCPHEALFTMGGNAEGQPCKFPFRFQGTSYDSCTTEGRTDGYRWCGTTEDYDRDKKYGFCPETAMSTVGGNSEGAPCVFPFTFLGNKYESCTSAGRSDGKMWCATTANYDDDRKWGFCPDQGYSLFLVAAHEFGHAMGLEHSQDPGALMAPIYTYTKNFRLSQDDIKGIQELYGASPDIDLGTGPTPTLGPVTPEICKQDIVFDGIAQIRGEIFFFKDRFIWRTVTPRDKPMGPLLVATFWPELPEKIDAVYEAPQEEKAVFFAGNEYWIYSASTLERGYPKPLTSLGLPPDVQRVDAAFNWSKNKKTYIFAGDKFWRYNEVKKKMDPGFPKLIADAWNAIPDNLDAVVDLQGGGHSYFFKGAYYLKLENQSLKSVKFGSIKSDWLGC
Test [11] concerns the target T8, Replicative DNA helicase DnaB (Mycobacterium tuberculosis, UniProt P9WMR3).
T8 sequence (P9WMR3 whole entry): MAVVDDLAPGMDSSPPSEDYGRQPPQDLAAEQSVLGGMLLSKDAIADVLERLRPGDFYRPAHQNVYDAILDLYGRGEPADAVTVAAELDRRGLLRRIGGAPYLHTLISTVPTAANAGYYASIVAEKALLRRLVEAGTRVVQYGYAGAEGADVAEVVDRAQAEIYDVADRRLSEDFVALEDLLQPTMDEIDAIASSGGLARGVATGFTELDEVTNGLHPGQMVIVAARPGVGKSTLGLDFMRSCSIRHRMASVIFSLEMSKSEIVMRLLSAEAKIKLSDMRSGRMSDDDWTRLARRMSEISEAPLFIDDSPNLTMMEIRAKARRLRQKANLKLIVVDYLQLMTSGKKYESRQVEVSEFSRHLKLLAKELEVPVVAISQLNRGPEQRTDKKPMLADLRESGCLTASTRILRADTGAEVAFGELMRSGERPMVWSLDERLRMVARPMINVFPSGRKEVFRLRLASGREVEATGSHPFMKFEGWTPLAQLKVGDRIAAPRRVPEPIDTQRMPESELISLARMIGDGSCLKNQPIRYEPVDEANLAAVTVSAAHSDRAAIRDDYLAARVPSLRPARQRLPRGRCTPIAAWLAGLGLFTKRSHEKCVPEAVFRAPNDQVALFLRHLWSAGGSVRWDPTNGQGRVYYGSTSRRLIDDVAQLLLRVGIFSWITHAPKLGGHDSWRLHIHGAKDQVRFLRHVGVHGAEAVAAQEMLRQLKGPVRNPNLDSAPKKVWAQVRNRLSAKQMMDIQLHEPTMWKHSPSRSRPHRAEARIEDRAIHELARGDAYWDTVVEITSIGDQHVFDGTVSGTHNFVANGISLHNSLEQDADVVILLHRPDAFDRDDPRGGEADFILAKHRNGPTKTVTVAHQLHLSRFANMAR
Put plainly: DnaB intein splicing inhibitors, dose response, biochemical, cell-free fluorescence (AID 449749). Format: functional.

Test [12] deals with 26S proteasome non-ATPase regulatory subunit 14 (Homo sapiens, UniProt O00487). In words: inhibition of proteasome subunit RPN11 – biochemical, fluorescence polarization, uHTS hits, confirmation (AID 602368). Format: functional. In general terms: Fluorescence polarisation rises when a labelled molecule tumbles more slowly, as on binding a larger partner.
Sequence of 26S proteasome non-ATPase regulatory subunit 14 (O00487 whole entry, the tested form may be a part): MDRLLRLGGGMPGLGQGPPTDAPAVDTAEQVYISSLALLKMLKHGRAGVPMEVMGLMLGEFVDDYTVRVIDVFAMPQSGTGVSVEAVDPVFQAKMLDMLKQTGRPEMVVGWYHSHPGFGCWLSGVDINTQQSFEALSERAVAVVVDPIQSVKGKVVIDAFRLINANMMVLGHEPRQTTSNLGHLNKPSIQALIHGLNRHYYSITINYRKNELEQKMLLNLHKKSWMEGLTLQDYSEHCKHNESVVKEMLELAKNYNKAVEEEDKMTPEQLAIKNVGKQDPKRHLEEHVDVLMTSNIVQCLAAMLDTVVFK
The target of test [13] is T9, Carboxy-terminal domain RNA polymerase II polypeptide A small phosphatase 1 (Homo sapiens, UniProt Q9GZU7).
T9 sequence (Q9GZU7 whole entry): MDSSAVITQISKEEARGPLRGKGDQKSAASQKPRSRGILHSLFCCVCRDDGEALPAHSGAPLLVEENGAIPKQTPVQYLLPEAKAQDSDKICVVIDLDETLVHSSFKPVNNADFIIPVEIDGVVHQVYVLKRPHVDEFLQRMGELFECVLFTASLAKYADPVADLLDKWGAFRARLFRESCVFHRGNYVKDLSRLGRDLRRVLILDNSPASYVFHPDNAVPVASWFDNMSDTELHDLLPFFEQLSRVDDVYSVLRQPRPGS
Put plainly: inhibitors of CTDSP1, concentration-response testing, biochemical assay, absorbance-based, actives from ultra-high-throughput screening (AID 540297). Format: functional.

Sequence of DNA (cytosine-5)-methyltransferase 1 (P26358 whole entry): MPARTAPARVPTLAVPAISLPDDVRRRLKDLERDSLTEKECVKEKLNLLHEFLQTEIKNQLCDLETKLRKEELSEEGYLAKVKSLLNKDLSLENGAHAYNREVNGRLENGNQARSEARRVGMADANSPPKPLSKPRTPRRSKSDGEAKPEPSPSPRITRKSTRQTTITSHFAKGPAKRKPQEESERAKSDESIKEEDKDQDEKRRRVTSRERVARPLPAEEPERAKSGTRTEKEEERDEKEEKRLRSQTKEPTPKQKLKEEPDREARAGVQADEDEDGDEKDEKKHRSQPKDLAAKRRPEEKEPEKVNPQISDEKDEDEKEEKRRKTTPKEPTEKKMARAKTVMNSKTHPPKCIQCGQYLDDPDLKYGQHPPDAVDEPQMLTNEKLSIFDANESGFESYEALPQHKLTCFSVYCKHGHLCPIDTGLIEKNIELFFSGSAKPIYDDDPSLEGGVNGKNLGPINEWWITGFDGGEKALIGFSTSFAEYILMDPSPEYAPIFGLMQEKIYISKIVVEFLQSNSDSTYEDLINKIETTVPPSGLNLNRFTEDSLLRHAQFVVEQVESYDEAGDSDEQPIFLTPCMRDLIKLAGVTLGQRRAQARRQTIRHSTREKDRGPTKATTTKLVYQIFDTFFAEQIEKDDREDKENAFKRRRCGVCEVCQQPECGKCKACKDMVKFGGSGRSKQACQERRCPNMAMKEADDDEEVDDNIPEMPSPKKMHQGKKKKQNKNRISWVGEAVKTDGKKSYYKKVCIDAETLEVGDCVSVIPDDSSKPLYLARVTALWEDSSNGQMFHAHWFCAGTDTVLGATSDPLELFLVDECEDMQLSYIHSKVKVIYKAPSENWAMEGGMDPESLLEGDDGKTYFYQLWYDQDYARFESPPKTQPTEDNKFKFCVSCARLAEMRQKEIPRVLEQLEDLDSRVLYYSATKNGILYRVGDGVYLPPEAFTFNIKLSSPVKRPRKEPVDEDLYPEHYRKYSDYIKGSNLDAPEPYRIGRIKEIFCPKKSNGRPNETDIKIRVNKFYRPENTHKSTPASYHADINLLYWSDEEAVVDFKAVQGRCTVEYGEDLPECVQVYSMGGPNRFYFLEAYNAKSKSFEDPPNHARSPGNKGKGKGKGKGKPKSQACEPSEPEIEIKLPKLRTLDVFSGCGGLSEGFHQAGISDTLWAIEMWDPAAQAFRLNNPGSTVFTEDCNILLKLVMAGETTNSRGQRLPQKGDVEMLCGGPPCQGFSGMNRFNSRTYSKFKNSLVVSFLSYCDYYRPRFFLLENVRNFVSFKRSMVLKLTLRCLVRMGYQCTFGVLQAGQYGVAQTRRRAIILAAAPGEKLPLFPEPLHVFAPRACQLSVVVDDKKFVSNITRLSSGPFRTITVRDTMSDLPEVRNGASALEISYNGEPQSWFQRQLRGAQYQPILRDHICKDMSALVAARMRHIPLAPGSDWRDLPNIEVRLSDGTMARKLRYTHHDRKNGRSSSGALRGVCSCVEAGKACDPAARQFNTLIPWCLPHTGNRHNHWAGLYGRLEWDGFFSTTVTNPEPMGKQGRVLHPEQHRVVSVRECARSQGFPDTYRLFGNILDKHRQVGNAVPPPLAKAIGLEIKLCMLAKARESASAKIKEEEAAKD

As for `Cc1ccc(-c2nc(C(=O)NCCCN(C)C)cc3c2[nH]c2ccccc23)cc1`, the AC50 in test [1] is 10.9 µM (active); in [2], 2.77 µM (active); in test [3] it was 11.2 µM (active).
Regarding `O=C1NC(=S)N(c2ccccc2)C(=O)/C1=C/c1ccco1`, the IC50 in [4] was 8.35 µM (active); in test [5] it was 0.811 µM (active). For the same compound, the concentration giving a half-maximal response (EC50) in [6] is 32.7 µM (active).
In the case of `N=c1c(C(=O)NCc2ccco2)cc2c(=O)n3ccccc3nc2n1Cc1ccccc1`, the IC50 in [7] is 28.4 µM (inactive).
As to `O=C(O)CN1C(=O)/C(=C\c2ccc(OC(=O)c3ccco3)cc2)SC1=S`, in test [8], the EC50 is 20.3 µM (active). For the same compound, the IC50 was 27.8 µM (active) in test [9], > 100 µM (inactive) in [10] and 25.4 µM (active) in [12]. The AC50 in [11] was 165 µM (active).
As for `CC(=O)Nc1ccc(/C(C)=N/NC(=O)c2ccc(COc3ccccc3Cl)o2)cc1`, the IC50 in [9] was 43.6 µM (active); in test [10], > 100 µM (inactive); in test [12] it was 24.8 µM (active); in test [13], 7.9 µM (active).
With `O=c1cc(CN2CCCCCCC2)c2ccccc2o1`, the IC50 in test [7] was 41.5 µM (inactive).

By AC50 is commonly meant the concentration giving half of the maximal activity seen. As usually defined, the EC50 is the midpoint of the concentration-response curve.
